Laboratory results as given in ChEMBL document CHEMBL4482325, “Clpx inhibitory compounds for the treatment of multi resistant staphylococcus aureus virulence and for the treatment of leukemia” (2018).
Activity calls are given as the source filed them. The rule behind the calls is not given here.

Columns and labels:
[1] = (§1) Inhibition of Staphylococcus aureus ClpXP using ssrA degradation tagged fluorescent GFP substrate in presence of ATP regeneration system pre-incubation for 15 mins before substrate addition by fluorescence assay
[2] = biological target: T1, ATP-dependent Clp protease proteolytic subunit (Staphylococcus aureus (strain NCTC 8325)) (UniProt Q2G036); assay: Inhibition of Staphylococcus aureus ClpP using ssrA degradation tagged fluorescent GFP substrate in presence of ATP regeneration system pre-incubation for 15 mins before substrate addition by fluorescence assay
T1 sequence (whole entry): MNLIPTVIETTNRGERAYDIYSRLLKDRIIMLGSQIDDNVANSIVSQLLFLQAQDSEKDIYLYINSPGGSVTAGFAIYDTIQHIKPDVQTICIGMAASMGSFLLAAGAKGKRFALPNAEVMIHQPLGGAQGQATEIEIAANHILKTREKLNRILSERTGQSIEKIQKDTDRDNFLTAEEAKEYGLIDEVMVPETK

Staphylococcus aureus [3] = assay: Inhibition of Staphylococcus aureus ClpCP at 100 uM using ssrA degradation tagged fluorescent GFP substrate in presence of ATP regeneration system pre-incubation for 15 mins before substrate addition by fluorescence assay
Staphylococcus aureus [4] = assay: as §1
Staphylococcus aureus [5] = assay: Inhibition of Staphylococcus aureus ClpXP using ssrA degradation tagged fluorescent GFP substrate in presence of ATP regeneration system pre-incubation for 15 mins before substrate addition by fluorescence assay relative to control
[6] = Inhibition of Staphylococcus aureus ClpPX assessed as reduction in ATP hydrolysis incubated for 2 to 14 mins by malachite green assay
K562 = assay: Cytotoxicity against human K562 cells assessed as reduction in cell viability up to 100 uM incubated for 72 hrs by cell-titer blue reagent based assay; format: functional
Homo sapiens [7] = organism: Homo sapiens; assay: Inhibition of human ClpXP at 1 to 100 uM preincubated for 15 mins before FITC-labeled casein substrate addition in presence of ATP regeneration mix and creatine kinase
CCRF-CEM = assay: Cytotoxicity against human CCRF-CEM cells assessed as reduction in cell viability up to 120 uM incubated for 72 hrs by cell-titer blue reagent based assay; format: functional
Homo sapiens [8] = organism: Homo sapiens; assay: Cytotoxicity against human S-Jurkat cells assessed as reduction in cell viability up to 120 uM incubated for 72 hrs by cell-titer blue reagent based assay; format: functional
A549 = assay: Cytotoxicity against human A549 cells assessed as reduction in residual metabolic activity at 1 to 50 uM incubated for 24 hrs by MTT assay; format: functional, cell-based
Staphylococcus aureus [9] = assay: Inhibition of ClpXP in Staphylococcus aureus NCTC 8325 assessed as reduction in extracellular proteolytic activity by measuring overall proteolysis of sheep erythrocytes exposed to supernatants of 20 hrs 0.1 to 30 nmol compound pre-treated Staphylococcus aureus
Staphylococcus aureus [10] = assay: Binding affinity to Staphylococcus aureus ClpPX assessed as induction of covalent modification a 100 um incubated for 60 mins by intact mass spectrometry
Staphylococcus aureus [11] = assay: Suppression of virulence factors in Staphylococcus aureus NCTC 8325 assessed as reduction in serine protease C expression; format: functional, organism-based
[12] = Half life in mouse plasma at 100 uM by HPLC and MS analysis; format: ADME, cell-free
Staphylococcus aureus [13] = assay: Suppression of virulence factors in Staphylococcus aureus NCTC 8325 assessed as reduction in serine protease D expression; format: functional, organism-based
Staphylococcus aureus [14] = assay: Binding affinity to Staphylococcus aureus ClpXP assessed as induction of collapse of ClpXP proteolytic complex
Staphylococcus aureus [15] = assay: Suppression of virulence factors in Staphylococcus aureus NCTC 8325 assessed as reduction in serine protease E expression; format: functional, organism-based
Staphylococcus aureus [16] = assay: Suppression of virulence factors in Staphylococcus aureus NCTC 8325 assessed as reduction in serine protease A expression; format: functional, organism-based
[17] = (§2) Inhibition of ClpXP in Staphylococcus aureus NCTC 8325 assessed as reduction in extracellular proteolytic activity by measuring hemolysis of sheep erythrocytes exposed to supernatants of 20 hrs compound pre-treated Staphylococcus aureus
Staphylococcus aureus [18] = assay: as §2
Staphylococcus aureus [19] = assay: Suppression of virulence factors in Staphylococcus aureus NCTC 8325 assessed as reduction in gamma hemolysin-C protein expression; format: functional, organism-based
Staphylococcus aureus [20] = assay: Suppression of virulence factors in Staphylococcus aureus NCTC 8325 assessed as reduction in staphopain-A expression; format: functional, organism-based
Staphylococcus aureus [21] = assay: Suppression of virulence factors in Staphylococcus aureus NCTC 8325 assessed as reduction in serine protease F expression; format: functional, organism-based
Staphylococcus aureus [22] = assay: Suppression of virulence factors in Staphylococcus aureus NCTC 8325 assessed as reduction in serine protease B expression; format: functional, organism-based

## COc1ccc(-n2ccnc(SCC(=O)Nc3cc(OC)cc(OC)c3)c2=O)cc1
[1]
  IC50: 2200 nM
[2]
  inhibition: inactive
Staphylococcus aureus [3]
  inhibition: inactive

## O=C1C2=C(Nc3ccccc3SC2c2ccccc2O)c2ccccc21 (stereo not drawn)
Staphylococcus aureus [4]
  inhibition (active/not active): inactive

## C#CCNC(=O)c1ccc2c(c1)C1=C(C2=O)C(c2cccc(OC)c2)Sc2ccccc2N1 (stereo not drawn)
Staphylococcus aureus [4]
  inhibition (active/not active): Active

## CC(=O)Oc1ccc(C2Sc3ccccc3NC3=C2C(=O)c2ccccc23)cc1 (stereo not drawn)
Staphylococcus aureus [4]
  inhibition (active/not active): Active
Staphylococcus aureus [5]
  inhibition: 35%

## C#Cc1ccc2c(c1)C(=O)C1=C2Nc2ccccc2SC1c1cccc(O)c1 (stereo not drawn)
Staphylococcus aureus [4]
  inhibition (active/not active): Active

## COC(=O)c1ccc(OC(=O)CCc2cc(OC)c(OC)c(OC)c2)cc1
Staphylococcus aureus [3]
  inhibition: inactive

## N#CC1=C(N)Oc2[nH]nc(-c3ccc(Br)cc3)c2C1c1ccc(OC(=O)c2ccco2)cc1 (stereo not drawn)
[1]
  IC50: 3100 nM
[2]
  inhibition: inactive
Staphylococcus aureus [3]
  inhibition: inactive

## O=C1C2=C(Nc3ccccc3SC2c2cccc(F)c2)c2ccccc21 (stereo not drawn)
Staphylococcus aureus [4]
  inhibition (active/not active): Active

## O=C1C2=C(Nc3ccccc3SC2c2ccc(O)cc2)c2ccccc21 (stereo not drawn)
Staphylococcus aureus [4]
  inhibition (active/not active): Active

## C#Cc1ccc2c(c1)C1=C(C2=O)C(c2cc(O)cc(N=[N+]=[N-])c2)Sc2ccccc2N1 (stereo not drawn)
Staphylococcus aureus [4]
  inhibition (active/not active): Active

## Nc1cccc(C2Sc3ccccc3NC3=C2C(=O)c2ccccc23)c1 (stereo not drawn)
Staphylococcus aureus [4]
  inhibition (active/not active): Active

## C#CCCCCOc1cc(O)cc(C2Sc3ccccc3NC3=C2C(=O)c2ccccc23)c1 (stereo not drawn)
Staphylococcus aureus [4]
  inhibition (active/not active): Active

## O=C1C2=C(Nc3ccccc3S(=O)(=O)C2c2ccc(-c3ccccc3)cc2)c2ccccc21 (stereo not drawn)
Staphylococcus aureus [4]
  inhibition (active/not active): Active

## COc1cccc(C2Sc3ccccc3NC3=C2C(=O)c2ccccc23)c1 (stereo not drawn)
Staphylococcus aureus [4]
  inhibition (active/not active): Active

## O=C1C2=C(Nc3ccccc3SC2c2cccs2)c2ccccc21 (stereo not drawn)
[1]
  IC50: 2500 nM
[6]
  IC50: 1600 to 2400 nM
K562
  Activity: Active
Homo sapiens [7]
  inhibition: Active
[2]
  inhibition: inactive
CCRF-CEM
  Activity: Active
Staphylococcus aureus [3]
  inhibition: inactive
Homo sapiens [8]
  Activity: Active

## COc1ccc2c(c1)SC(c1cccc(O)c1)C1=C(N2)c2ccccc2C1=O (stereo not drawn)
Staphylococcus aureus [4]
  inhibition (active/not active): Active

## Cc1ccc(NC(=O)Cc2ccc(NC(=O)N3CCCCc4ccccc43)cc2)cc1C
[1]
  IC50: 1600 nM
[2]
  inhibition: inactive
Staphylococcus aureus [3]
  inhibition: inactive

## O=C(O)c1ccc(C2Sc3ccccc3NC3=C2C(=O)c2ccccc23)cc1 (stereo not drawn)
Staphylococcus aureus [4]
  inhibition (active/not active): inactive

## C#Cc1ccc2c(c1)C(=O)C1=C2Nc2ccccc2SC1c1cc(O)cc(N=[N+]=[N-])c1 (stereo not drawn)
Staphylococcus aureus [4]
  inhibition (active/not active): Active

## O=C1C2=C(Nc3ccccc3SC2c2cc(O)cc(Br)c2)c2ccccc21 (stereo not drawn)
Staphylococcus aureus [4]
  inhibition (active/not active): Active

## O=C1C2=C(Nc3ccccc3SC2c2cccnc2)c2ccccc21 (stereo not drawn)
Staphylococcus aureus [4]
  inhibition (active/not active): inactive

## C#Cc1ccc2c(c1)C1=C(C2=O)C(c2cccc(O)c2)Sc2ccccc2N1 (stereo not drawn)
Staphylococcus aureus [4]
  inhibition (active/not active): Active

## O=C1C2=C(Nc3ccccc3SC2c2ccccc2)c2ccccc21 (stereo not drawn)
Staphylococcus aureus [4]
  inhibition (active/not active): Active

## O=C1C2=C(Nc3ccccc3SC2c2cc(O)cc(O)c2)c2ccccc21 (stereo not drawn)
Staphylococcus aureus [4]
  inhibition (active/not active): Active

## O=C1C2=C(Nc3ccccc3SC2c2ccc(F)cc2)c2ccccc21 (stereo not drawn)
Staphylococcus aureus [4]
  inhibition (active/not active): Active

## C#CCNC(=O)c1ccc2c(c1)C(=O)C1=C2Nc2ccccc2SC1c1cccc(O)c1 (stereo not drawn)
Staphylococcus aureus [4]
  inhibition (active/not active): Active

## COc1cccc(C2C3=C(Nc4ccccc4S2(=O)=O)c2ccccc2C3=O)c1 (stereo not drawn)
Staphylococcus aureus [4]
  inhibition (active/not active): Active

## O=C1C2=C(Nc3ccccc3S(=O)(=O)C2c2cccc(O)c2)c2ccccc21 (stereo not drawn)
Staphylococcus aureus [4]
  inhibition (active/not active): Active
A549
  Activity: inactive

## O=C1C2=C(Nc3ccccc3SC2c2cccc(CO)c2)c2ccccc21 (stereo not drawn)
Staphylococcus aureus [4]
  inhibition (active/not active): Active
A549
  Activity: inactive

## O=C1C2=C(Nc3ccccc3NC2c2ccccc2)c2ccccc21 (stereo not drawn)
Staphylococcus aureus [4]
  inhibition (active/not active): Active

## O=C1C2=C(Nc3ccccc3SC2c2cccc(O)c2)c2ccccc21 (stereo not drawn)
[1]
  IC50: 1500 nM
Staphylococcus aureus [9]
  inhibition: Active
[6]
  IC50: 1600 to 2400 nM
Staphylococcus aureus [10]
  Activity: inactive
Staphylococcus aureus [11]
  Activity: Dose-dependent effect
  EC50: 3000 nM
K562
  Activity: Active
Homo sapiens [7]
  inhibition: Active
[12]
  half-life at 100 µM: > 4 h
Staphylococcus aureus [13]
  Activity: Dose-dependent effect
  EC50: 3000 nM
[2]
  inhibition: inactive
Staphylococcus aureus [14]
  Activity: Active
Staphylococcus aureus [15]
  Activity: Dose-dependent effect
  EC50: 3000 nM
Staphylococcus aureus [16]
  Activity: Dose-dependent effect
  EC50: 3000 nM
[17]
  IC50: 3000 nM
Staphylococcus aureus [18]
  inhibition: Dose-dependent effect
Staphylococcus aureus [19]
  Activity: Dose-dependent effect
  EC50: 3000 nM
CCRF-CEM
  Activity: Active
Staphylococcus aureus [5]
  inhibition: 100%
Staphylococcus aureus [3]
  inhibition: inactive
Homo sapiens [8]
  Activity: Active
Staphylococcus aureus [20]
  Activity: Dose-dependent effect
  EC50: 3000 nM
Staphylococcus aureus [21]
  Activity: Dose-dependent effect
  EC50: 3000 nM
Staphylococcus aureus [22]
  Activity: Dose-dependent effect
  EC50: 3000 nM

## O=C1C2=C(Nc3ccccc3SC2c2ccc(C(F)(F)F)cc2)c2ccccc21 (stereo not drawn)
Staphylococcus aureus [4]
  inhibition (active/not active): Active

## C#CCNC(=O)c1ccc2c(c1)C1=C(C2=O)C(c2cccc(O)c2)Sc2ccccc2N1 (stereo not drawn)
Staphylococcus aureus [4]
  inhibition (active/not active): Active

## N#CC1=C(N)Oc2cc3c(cc2C1c1ccc(OCc2ccc(F)cc2)cc1)OCO3 (stereo not drawn)
[1]
  IC50: 600 nM
[2]
  inhibition: inactive
Staphylococcus aureus [3]
  inhibition: inactive

## COc1cc(O)cc(C2Sc3ccccc3NC3=C2C(=O)c2ccccc23)c1 (stereo not drawn)
Staphylococcus aureus [4]
  inhibition (active/not active): Active

## O=C1C2=C(Nc3ccccc3SC2c2ccc(-c3ccccc3)cc2)c2ccccc21 (stereo not drawn)
Staphylococcus aureus [4]
  inhibition (active/not active): Active

## O=C1C2=C(Nc3ccccc3S(=O)(=O)C2c2ccc(C(F)(F)F)cc2)c2ccccc21 (stereo not drawn)
Staphylococcus aureus [4]
  inhibition (active/not active): Active

## O=C1C2=C(Nc3ccccc3SC2c2cccc(O)c2)c2cc(Cl)c(Cl)cc21 (stereo not drawn)
Staphylococcus aureus [4]
  inhibition (active/not active): Active

## O=C1C2=C(Nc3ccccc3S(=O)(=O)C2c2ccc(F)cc2)c2ccccc21 (stereo not drawn)
Staphylococcus aureus [4]
  inhibition (active/not active): Active

## C#CCNC(=O)c1ccc2c(c1)C(=O)C1=C2Nc2ccccc2SC1c1cccc(OC)c1 (stereo not drawn)
Staphylococcus aureus [4]
  inhibition (active/not active): Active
